The target of the assay is T1, purified human HDAC6 (Homo sapiens, UniProt Q9UBN7).
T1 construct: purchased BPS Bioscience 5006
T1 sequence (Q9UBN7 1-1215): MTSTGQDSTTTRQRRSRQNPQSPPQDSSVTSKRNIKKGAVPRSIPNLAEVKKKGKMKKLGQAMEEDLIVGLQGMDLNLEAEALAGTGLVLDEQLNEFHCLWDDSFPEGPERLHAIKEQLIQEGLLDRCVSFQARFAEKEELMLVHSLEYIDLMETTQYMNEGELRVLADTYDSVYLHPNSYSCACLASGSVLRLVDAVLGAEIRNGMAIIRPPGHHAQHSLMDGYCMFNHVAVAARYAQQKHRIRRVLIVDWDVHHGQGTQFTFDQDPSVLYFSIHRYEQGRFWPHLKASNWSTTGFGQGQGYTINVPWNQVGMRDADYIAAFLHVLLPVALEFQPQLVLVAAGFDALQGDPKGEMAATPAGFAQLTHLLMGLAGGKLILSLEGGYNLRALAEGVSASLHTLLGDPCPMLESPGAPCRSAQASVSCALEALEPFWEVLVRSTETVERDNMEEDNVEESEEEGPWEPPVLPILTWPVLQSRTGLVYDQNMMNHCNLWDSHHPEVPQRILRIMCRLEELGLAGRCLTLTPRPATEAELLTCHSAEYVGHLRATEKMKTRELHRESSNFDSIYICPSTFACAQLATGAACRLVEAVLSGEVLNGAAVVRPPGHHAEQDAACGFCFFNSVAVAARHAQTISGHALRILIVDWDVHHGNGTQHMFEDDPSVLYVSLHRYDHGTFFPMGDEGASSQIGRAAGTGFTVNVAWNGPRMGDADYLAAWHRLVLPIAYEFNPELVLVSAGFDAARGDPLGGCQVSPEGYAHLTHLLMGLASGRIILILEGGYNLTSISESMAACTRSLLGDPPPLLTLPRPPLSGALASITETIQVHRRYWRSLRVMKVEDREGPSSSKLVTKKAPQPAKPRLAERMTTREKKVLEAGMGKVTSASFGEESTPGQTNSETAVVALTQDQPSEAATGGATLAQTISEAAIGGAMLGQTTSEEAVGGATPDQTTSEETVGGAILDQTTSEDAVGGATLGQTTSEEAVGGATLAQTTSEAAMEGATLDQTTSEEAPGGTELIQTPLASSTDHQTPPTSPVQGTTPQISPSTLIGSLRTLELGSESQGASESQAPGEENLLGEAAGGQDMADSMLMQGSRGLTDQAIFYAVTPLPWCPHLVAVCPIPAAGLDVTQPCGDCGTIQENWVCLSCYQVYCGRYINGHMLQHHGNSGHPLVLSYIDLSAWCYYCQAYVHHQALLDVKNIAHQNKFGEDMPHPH
In words: HDAC6 Enzyme Assay. The assay is classed as biochemical. The method, then:
To measure the inhibition of HDAC6 activity, purified human HDAC6 (BPS Bioscience; Cat. No. 5006) is incubated with substrate Ac-Arg-Gly-Lys(Ac)-AMC peptide (Bachem Biosciences; Cat. No. I-1925) for 1 hour at 30° C. in the presence of test compounds or vehicle DMSO control. The reaction is stopped with the HDAC inhibitor trichostatin A (Sigma; Cat. No. T8552) and the amount of Arg-Gly-Lys-AMC generated is quantitated by digestion with trypsin (Sigma; Cat. No. T1426) and subsequent measurement of the amount of AMC released using a fluorescent plate reader (Pherastar; BMG Technologies) set at Ex 340 nm and Em 460 nm. Concentration response curves are generated by calculating the fluorescence increase in test compound-treated samples relative to DMSO-treated controls, and enzyme inhibition (IC50) values are determined from those curves.

Experimental findings from US9096518B2, “Substituted hydroxamic acids and uses thereof” (Millennium Pharmaceuticals, Inc., priority 2009, dated 2015) are described below.

Structures are written as SMILES.

One may read the IC50 as the midpoint of a concentration-inhibition curve. Low values mean higher potency, high ones lower potency. Compound `O=C(NO)c1ccc2c(c1)CCN(C(=O)C13CC4CC(CC(C4)C1)C3)C2` [Compound 33, 2-[1-adamantylcarbonyl]-N-hydroxy-1,2,3,4-tetrahydroisoquinoline-6-carboxamide] displayed an IC50 of under 50 nM.
Compound `COc1cccc(CC(=O)N2CCc3cc(C(=O)NO)ccc3C2)c1` [Compound 34, N-hydroxy-2-[(3-methoxyphenyl)acetyl]-1,2,3,4-tetrahydroisoquinoline-6-carboxamide] returned a half-inhibitory concentration (IC50) of 50 to 100 nM.
In turn, `CC(C)c1ccc(CC(=O)N2CCc3cc(C(=O)NO)ccc3C2)cc1` [Compound 35, N-hydroxy-2-[(4-isopropylphenyl)acetyl]-1,2,3,4-tetrahydroisoquinoline-6-carboxamide] yielded a 50% inhibitory concentration (IC50) of 100 to 500 nM.
The same measure for `CC(=O)N1CCC(C(=O)N2CCc3cc(C(=O)NO)ccc3C2)CC1` [Compound 36, 2-[(1-acetylpiperidin-4-yl)carbonyl]-N-hydroxy-1,2,3,4-tetrahydroisoquinoline-6-carboxamide]: 100 to 500 nM; for `Cc1cc(C(F)(F)F)nn1CC(=O)N1CCc2cc(C(=O)NO)ccc2C1` [Compound 37, N-hydroxy-2-{[5-methyl-3-(trifluoromethyl)-1H-pyrazol-1-yl]acetyl}-1,2,3,4-tetrahydroisoquinoline-6-carboxamide]: 100 to 500 nM.
The same measure for `CCCCS(=O)(=O)N1CCc2cc(C(=O)NO)ccc2C1` [Compound 38, 2-(butylsulfonyl)-N-hydroxy-1,2,3,4-tetrahydroisoquinoline-6-carboxamide]: 50 to 100 nM; for `O=C(NO)c1ccc2c(c1)CCN(S(=O)(=O)Cc1ccccc1)C2` [Compound 39, 2-(benzylsulfonyl)-N-hydroxy-1,2,3,4-tetrahydroisoquinoline-6-carboxamide]: 50 to 100 nM.
The same measure for `CCCS(=O)(=O)N1CCc2cc(C(=O)NO)ccc2C1` [Compound 40, N-hydroxy-2-(propylsulfonyl)-1,2,3,4-tetrahydroisoquinoline-6-carboxamide]: 100 to 500 nM.
Consider `CC(C)c1ccc(S(=O)(=O)N2CCc3cc(C(=O)NO)ccc3C2)cc1` [Compound 42, N-hydroxy-2-[(4-isopropylphenyl)sulfonyl]-1,2,3,4-tetrahydroisoquinoline-6-carboxamide], for which the IC50 lay in the range of 100 to 500 nM.
The same measure for `COc1ccc(-c2ccc(S(=O)(=O)N3CCc4cc(C(=O)NO)ccc4C3)cc2)cc1` [Compound 43, N-hydroxy-2-[(4′-methoxybiphenyl-4-yl)sulfonyl]-1,2,3,4-tetrahydroisoquinoline-6-carboxamide]: 50 to 100 nM.
The same measure for `CC(C)(C)c1ccc(S(=O)(=O)N2CCc3cc(C(=O)NO)ccc3C2)cc1` [Compound 44, 2-[(4-tert-butylphenyl)sulfonyl]-N-hydroxy-1,2,3,4-tetrahydroisoquinoline-6-carboxamide]: 50 to 100 nM; for `Cc1ccc(S(=O)(=O)N2CCc3cc(C(=O)NO)ccc3C2)cc1` [Compound 45, N-hydroxy-2-[(4-methylphenyl)sulfonyl]-1,2,3,4-tetrahydroisoquinoline-6-carboxamide]: 50 to 100 nM.
The same measure for `O=C(NO)c1ccc2c(c1)CCN(S(=O)(=O)c1ccc3ccccc3c1)C2` [Compound 47, N-hydroxy-2-(2-naphthylsulfonyl)-1,2,3,4-tetrahydroisoquinoline-6-carboxamide]: under 50 nM.
Take `O=C(NO)c1ccc2c(c1)CCN(S(=O)(=O)c1cccc(-c3ccc(F)cc3)c1)C2` [Compound 48, 2-[(4′-fluorobiphenyl-3-yl)sulfonyl]-N-hydroxy-1,2,3,4-tetrahydroisoquinoline-6-carboxamide]: the IC50 lay in the range of 50 to 100 nM.
The same measure for `COc1ccc(S(=O)(=O)N2CCc3cc(C(=O)NO)ccc3C2)cc1` [Compound 49, N-hydroxy-2-[(4-methoxyphenyl)sulfonyl]-1,2,3,4-tetrahydroisoquinoline-6-carboxamide]: under 50 nM.
The same measure for `O=C(NO)c1ccc2c(c1)CCN(S(=O)(=O)c1ccc(F)cc1)C2` [Compound 50, 2-[(4-fluorophenyl)sulfonyl]-N-hydroxy-1,2,3,4-tetrahydroisoquinoline-6-carboxamide]: 100 to 500 nM; for `Cc1nc(S(=O)(=O)N2CCc3cc(C(=O)NO)ccc3C2)cn1C` [Compound 51, 2-[(1,2-dimethyl-1H-imidazol-4-yl)sulfonyl]-N-hydroxy-1,2,3,4-tetrahydroisoquinoline-6-carboxamide]: 100 to 500 nM.
The same measure for `O=C(NO)c1ccc2c(c1)CCN(S(=O)(=O)c1ccc(C(F)(F)F)cc1)C2` [Compound 52, N-hydroxy-2-{[4-(trifluoromethyl)phenyl]sulfonyl}-1,2,3,4-tetrahydroisoquinoline-6-carboxamide]: 50 to 100 nM.
`Cc1noc(C)c1S(=O)(=O)N1CCc2cc(C(=O)NO)ccc2C1` [Compound 53, 2-[(3,5-dimethylisoxazol-4-yl)sulfonyl]-N-hydroxy-1,2,3,4-tetrahydroisoquinoline-6-carboxamide] displayed an IC50 of 100 to 500 nM.
Compound `Cc1n[nH]c(C)c1S(=O)(=O)N1CCc2cc(C(=O)NO)ccc2C1` [Compound 54, 2-[(3,5-dimethyl-1H-pyrazol-4-yl)sulfonyl]-N-hydroxy-1,2,3,4-tetrahydroisoquinoline-6-carboxamide] registered an IC50 of 50 to 100 nM.
Compound `O=C(NO)c1ccc2c(c1)CCN(S(=O)(=O)c1ccc(Oc3ccncc3)cc1)C2` [Compound 55, N-hydroxy-2-{[4-(pyridin-4-yloxy)phenyl]sulfonyl}-1,2,3,4-tetrahydroisoquinoline-6-carboxamide] registered an IC50 of 100 to 500 nM.
`O=C(NO)c1ccc2c(c1)CCN(S(=O)(=O)CC(c1ccccc1)c1ccccc1)C2` [Compound 56, 2-[(2,2-diphenylethyl)sulfonyl]-N-hydroxy-1,2,3,4-tetrahydroisoquinoline-6-carboxamide] gave an IC50 of 100 to 500 nM.
The same measure for `O=C(NO)c1ccc2c(c1)CCN(Cc1ccccc1)C2` [Compound 57, 2-benzyl-N-hydroxy-1,2,3,4-tetrahydroisoquinoline-6-carboxamide]: 50 to 100 nM; for `O=C(NO)c1ccc2c(c1)CCN(CCc1cccc3ccccc13)C2` [Compound 58, N-hydroxy-2-[2-(1-naphthyl)ethyl]-1,2,3,4-tetrahydroisoquinoline-6-carboxamide]: 50 to 100 nM; for `O=C(NO)c1ccc2c(c1)CCN(Cc1ccc(-n3cncn3)cc1)C2` [Compound 59, N-hydroxy-2-[4-(1H-1,2,4-triazol-1-yl)benzyl]-1,2,3,4-tetrahydroisoquinoline-6-carboxamide]: 100 to 500 nM.
The same measure for `O=C(NO)c1ccc2c(c1)CCN(Cc1ccc3ccccc3n1)C2` [Compound 60, N-hydroxy-2-(quinolin-2-ylmethyl)-1,2,3,4-tetrahydroisoquinoline-6-carboxamide]: 50 to 100 nM.
For the compound `O=C(NO)c1ccc2c(c1)CCN(Cc1ccc(OC(F)(F)F)cc1)C2` [Compound 61, N-hydroxy-2-[4-(trifluoromethoxy)benzyl]-1,2,3,4-tetrahydroisoquinoline-6-carboxamide], the IC50 lay in the range of 100 to 500 nM.
The same measure for `O=C(NO)c1ccc2c(c1)CCN(CCCc1ccccc1)C2` [Compound 62, N-hydroxy-2-(3-phenylpropyl)-1,2,3,4-tetrahydroisoquinoline-6-carboxamide]: 100 to 500 nM.
The compound `O=C(NO)c1ccc2c(c1)CCN(CCOc1ccccc1)C2` [Compound 63, N-hydroxy-2-(2-phenoxyethyl)-1,2,3,4-tetrahydroisoquinoline-6-carboxamide] returned an IC50 of 100 to 500 nM.
The same measure for `O=C(NO)c1ccc2c(c1)CCN(C/C=C/c1ccccc1)C2` [Compound 64, N-hydroxy-2-[(2E)-3-phenylprop-2-en-1-yl]-1,2,3,4-tetrahydroisoquinoline-6-carboxamide]: 100 to 500 nM.
